Molecules are shown by their SMILES. Entries after “also recorded” stand apart in the source; their conditions may differ. Read-outs that look alike come from different tables or passages of the source. Some results are limits rather than exact numbers.

These results are taken from patent US20090247520A1, “INHIBITORS OF ANTIGEN RECEPTOR-INDUCED NF-kappa B ACTIVATION” (The Burnham Institute for Medical Research, priority 2008, published 2009).

Experiment [1] has as its system LPS (TLR4 agonist) induced IL-6 production. The experiment is described as follows: IL-6 production by THP.1 monocytes stimulated with LPS. The experiment is classed as cell-based. The conditions noted are these: listed as CID-2858522. The text has this:
FIG. 1 is a flow chart of screening and counter-screenings for selective inhibitors of antigen-receptor induced NF-κB pathway. A total of 114,889 compounds were screened. From a screen of 53,280 commercially available compounds (left column), 519 hits were obtained, of which 248 reconfirmed using the same primary screening assay. […] From these 11 active compounds, one hit, CID-2858522, inhibited PMA/Ionomycin-induced production of cytokine IL-8 by the HEK293 cell line. CID-2858522 was then characterized (right column). PDB was substituted for PMA to confirm suppression of an alternative PKC activator. Pathway selectivity was assessed using panels of cell lines, starting with HEK293 cells in which each of the remaining NF-κB activation pathways was stimulated, showing inhibition only of PMA/Ionomycin-induced NF-κB reporter gene activity (panel 1). […]

Experiment [2] deals with TNF-α-induced IKK-β phosphorylation. The experiment is described as follows: TNF-α-induced IKK-β phosphorylation in HEK293 cells. The conditions noted are these: 4 μM. The experiment is classed as cell-based.
Experiment [3] has as its system PMA/Ionomycin-stimulated IL-8 production. The experiment is described as follows: PMA/Ionomycin-stimulated IL-8 production by HEK293 reporter cells (ELISA). The experiment is classed as cell-based, human. The method, then:
(§1) (A) Structures of two hit compounds, CID-2858522 (left) and CID-2998237 (right) are shown; (B, C) 293-NF-κB-luc cells were pretreated for 2 hrs with various concentration of either CID-2858522 (B) or CID-29982387 (C) and then stimulated with TNF (10 ng/mL) or PMA/lonomycin (10 ng/mL; 5 ng/mL) for 16 h. Luciferase activity was measured and data were expressed as a percentage relative to control treatment with DMSO only (mean±SD; n=3). (D) 293-NF-κB-luc cells were pretreated for 2 h with various concentrations of CID-2858522 or CID-2998237, then stimulated with PMA/lonomycin for 16 h. IL-8 release into the medium was measured, expressing data as a percentage relative to control cultures treated with DMSO (mean±SD; n=3). (E) 293-NF-κB-luc cells were pretreated with CID-2858522 and then stimulated with PDBu for 16 h, IL-8 production and NF-κB luciferase activity were measured as above. (F) 293-NF-κB-luc cells were pretreated for 2 h with various concentrations of CID-2858522 or a PKC inhibitor (Bisindolylmaleimide I) at 1 μM followed by PMA/Ionomycin (10 ng/mL) stimulation for 2 h, then p65-DNA-binding activity was measured in nuclear extracts (10 μg protein), expressing data as fold-increase relative to unstimulated cells (mean±SD; n=3).
Lymphokine measurements. Human IL-2 or IL-8 levels in culture medium were measured by Enzyme-Linked Immunosorbent Assays (ELISAs), using BD OptEIA ELISAs (BD Biosciences, San Diego, Calif.), according to the manufacturer's protocol, using 96-well ELISA plates (BD Biosciences) and measuring absorbance within 30 minutes of initiating reactions using a SpectraMax 190 spectrophotometer (Molecular Devices).

The subject of experiment [4] is PDB-induced IL-8 production. The experiment is described as follows: PDBu-induced IL-8 production by HEK293 cells. The experiment is classed as cell-based. As to conditions: Homo sapiens. Here is the method:
as §1
Lymphokine measurements. […]

Another experiment deals with p65-DNA binding activity. The experiment is described as follows: p65-DNA binding activity in anti-IgM-stimulated CLL B-cells. As to conditions: human CLL B-cells. The experiment is classed as cell-based. Here is the method: (A) Isolated mouse primary splenocytes were cultured with anti-CD3/anti-CD28 (0.3 μg/mL each) or anti-IgM (3 μg/mL) for 48 h, then 1 μCi 3H-Thymidine was added for 12 h and incorporation into DNA was measured, expressing data as fold increase above unstimulated cells (mean±SD; n=3). (B-D) Primary splenocytes were pretreated for 2 h with IKK inhibitor, BMS-335541 (B), PKC inhibitor, Bisindolylmaleimide I (C) or CID-2858522 (D), then stimulated with anti-CD3/anti-CD28 (0.3 μg/mL) or anti-IgM (3 μg/mL) for 48 h. 1 μCi 3H-Thymidine was added for 12 h and incorporation into DNA was measured, expressing data as percent inhibition relative to control cells treated with DMSO (mean±SD; n=3). […] Levels of TRAF1 and β-actin were assessed by immunoblotting, quantified by densitometry and TRAF1 results reported relative to control cells, after normalization for β-actin (mean±SD). […] Then nuclear extracts were prepared and p65-DNA-binding activity was measured (mean±SD; n=3).
NF-κB DNA-binding activity assays. Nuclear extracts were prepared from 10 cm^2 plates of confluent cells using a kit (Active Motif, Carsbad, Calif.). The total protein content of nuclear fractions was quantified by the Bradford method, followed by storage at −80° C. […]

As usually defined, the IC50 is the concentration needed to halve the response being measured. As to `Cc1cc2nc(NCCCO)n(CC(=O)c3cc(C(C)(C)C)c(O)c(C(C)(C)C)c3)c2cc1C` [Compound 1, 2-(2-(3-Hydroxypropylamino)-5,6-dimethyl-1H-benzo[d]imidazol-1-yl)-1-(3,5-di-tert-butyl-4-hydroxyphenyl)ethanone], the “suppression of IL-6 production, LPS-stimulated THP.1” value in experiment [1] was “failed to inhibit; also recorded: did not suppress”. Moreover, the “inhibition of TNF-α-induced IKK-β phosphorylation” value in experiment [2] was “failed to inhibit”. Moreover, the concentration for half-maximal inhibition (IC50) was under 100 nM in experiment [3] (Homo sapiens); 100 nM in experiment [4] (read-out: IC50, PDB-induced IL-8 production); under 100 nM in experiment [4] (read-out: IC50, PDBu-induced IL-8 secretion (cellular potency)). In experiment [3] (PMA/Ionomycin), the “concentration at which maximum suppression of IL-8 production is achieved” value is 1 µM. Further, the “suppression of anti-IgM-induced p65-DNA binding activity” value with p65-DNA binding activity is “direct suppression”.
